Assay results published in ChEMBL document CHEMBL1142260, “Acylguanidine inhibitors of beta-secretase: optimization of the pyrrole ring substituents extending into the S1' substrate binding pocket” (Bioorg Med Chem Lett, 2008).

What was measured:
Beta-secretase 1 [1] = target: T1, Beta-secretase 1 (Homo sapiens, UniProt P56817); conditions: CHO
CHO = experiment: Cytotoxicity against human CHO cells; format: functional; conditions: Cricetulus griseus, read-out: LD50 (the source's name)
[2] = Selectivity for BACE1 over cathepsin D
Beta-secretase 1 [3] = target: T1, Beta-secretase 1; experiment: Inhibition of BACE1
Cathepsin D = Cathepsin D (Homo sapiens, UniProt P07339); experiment: Inhibition of cathepsin D
Beta-secretase 1 [4] = target: T1, Beta-secretase 1; experiment: Inhibition of BACE1 at 2 uM

Sequence of Cathepsin D (P07339 65-162 limits assumed): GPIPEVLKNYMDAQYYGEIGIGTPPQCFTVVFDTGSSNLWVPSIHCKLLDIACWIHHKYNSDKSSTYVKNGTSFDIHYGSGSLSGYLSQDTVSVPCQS
Sequence of Cathepsin D (P07339 169-412 limits assumed): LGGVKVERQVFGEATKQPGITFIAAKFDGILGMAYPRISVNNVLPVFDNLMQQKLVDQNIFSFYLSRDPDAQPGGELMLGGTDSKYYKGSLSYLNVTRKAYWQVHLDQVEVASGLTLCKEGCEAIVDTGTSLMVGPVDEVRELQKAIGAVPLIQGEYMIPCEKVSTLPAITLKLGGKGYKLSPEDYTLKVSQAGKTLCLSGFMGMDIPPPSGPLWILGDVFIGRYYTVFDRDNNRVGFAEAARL
T1 sequence (P56817 whole entry): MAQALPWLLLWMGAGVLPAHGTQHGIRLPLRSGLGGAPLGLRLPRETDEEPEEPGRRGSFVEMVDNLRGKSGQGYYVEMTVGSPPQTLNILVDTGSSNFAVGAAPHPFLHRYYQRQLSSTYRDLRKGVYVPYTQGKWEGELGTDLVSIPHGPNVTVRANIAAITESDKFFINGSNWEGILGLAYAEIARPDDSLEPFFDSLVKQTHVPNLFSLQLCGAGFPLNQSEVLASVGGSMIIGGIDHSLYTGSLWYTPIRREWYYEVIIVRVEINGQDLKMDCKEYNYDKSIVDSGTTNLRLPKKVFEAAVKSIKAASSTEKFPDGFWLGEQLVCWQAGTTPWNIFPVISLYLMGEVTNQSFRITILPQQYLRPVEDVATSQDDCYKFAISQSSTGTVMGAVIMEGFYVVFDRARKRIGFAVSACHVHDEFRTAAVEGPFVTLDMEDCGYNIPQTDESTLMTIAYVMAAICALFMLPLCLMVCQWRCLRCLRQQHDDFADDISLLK

Row | Structure (SMILES) | IC50 (Beta-secretase 1 [3]) [µM] | IC50 (Cathepsin D) [µM] | inhibition (Beta-secretase 1 [4]) [%] | ED50 (Beta-secretase 1 [1]) [µM] | CC50 (CHO) [µM] | Ratio IC50 [2]
1 | N/C(=N/C(=O)Cn1c(-c2ccccc2)ccc1C12CC3CC(CC(C3)C1)C2)NCC(O)CO (centres undefined) | – | – | – | 21.1 | 88 | 137
2 | CCCOc1ccc(-c2ccc(-c3ccccc3Cl)n2CC(=O)NC(=N)NCCCO)cc1 | 0.121 | – | – | – | – | –
3 | C[C@H](O)CNC(=N)NC(=O)Cn1c(-c2ccccc2)ccc1C12CC3CC(CC(C3)C1)C2 | 0.942 | 54.1 | – | – | – | –
4 | Cc1csc(CN/C(N)=N\C(=O)Cn2c(-c3ccccc3)ccc2C23CC4CC(CC(C4)C2)C3)n1 | – | – | – | 3.97 | 8 | –
5 | CCCOc1ccc(-c2ccc(-c3ccccc3Cl)n2CC(=O)/N=C(/N)NCCCn2ccnc2)cc1 | 0.241 | – | – | 3.1 | – | 30
6 | CCCOc1ccc(-c2ccc(-c3ccccc3Cl)n2CC(=O)/N=C(/N)NCCCO)cc1 | – | – | – | 1.18 | – | 85
7 | Cc1csc(CNC(=N)NC(=O)Cn2c(-c3ccccc3)ccc2C23CC4CC(CC(C4)C2)C3)n1 | – | 0.144 | – | – | – | –
8 | N#CCCN/C(N)=N\C(=O)Cn1c(-c2ccccc2)ccc1C12CC3CC(CC(C3)C1)C2 | 0.31 | 12.2 | – | 3.44 | 16 | 39
9 | CCCOc1ccc(-c2ccc(-c3ccccc3Cl)n2CC(=O)NC(=N)NCc2ccco2)cc1 | 0.558 | – | – | – | – | –
10 | N=C(NC(=O)Cn1c(-c2ccccc2)ccc1C12CC3CC(CC(C3)C1)C2)NC1CCCCC1 | 7.2 | 54.2 | – | – | – | –
11 | N=C(NCC(O)CO)NC(=O)Cn1c(-c2ccccc2)ccc1C12CC3CC(CC(C3)C1)C2 (centres undefined) | 0.536 | 73.5 | – | – | – | –
12 | C[C@H](O)CN/C(N)=N\C(=O)Cn1c(-c2ccccc2)ccc1C12CC3CC(CC(C3)C1)C2 | – | – | – | 17.8 | 100 | 57
13 | CCCOc1ccc(-c2ccc(-c3ccccc3Cl)n2CC(=O)NC(=N)NCc2ccc(F)c(F)c2F)cc1 | 0.203 | – | – | – | – | –
14 | N/C(=N/C(=O)Cn1c(-c2ccccc2)ccc1C12CC3CC(CC(C3)C1)C2)NCCCO | – | 19.9 | – | 1.84 | 35 | 83
15 | CCCOc1ccc(-c2ccc(-c3ccccc3Cl)n2CC(=O)/N=C(/N)N[C@H]2CC[C@H](C(=O)O)CC2)cc1 | 0.078 | – | – | 10.4 | – | 7.3
16 | CCCOc1ccc(-c2ccc(-c3ccccc3Cl)n2CC(=O)/N=C(/N)NCc2ccco2)cc1 | – | – | – | 9.1 | – | 2.5
17 | N/C(=N/C(=O)Cn1c(-c2ccccc2)ccc1C12CC3CC(CC(C3)C1)C2)NCCO | 0.68 | 24.7 | – | 3.62 | 25 | 36

Row | Structure (SMILES) | IC50 (Beta-secretase 1 [3]) [µM] | IC50 (Cathepsin D) [µM] | inhibition (Beta-secretase 1 [4]) [%] | ED50 (Beta-secretase 1 [1]) [µM] | CC50 (CHO) [µM] | Ratio IC50 [2]
18 | CCCOc1ccc(-c2ccc(-c3ccccc3Cl)n2CC(=O)/N=C(/N)NCCC(N)=O)cc1 | – | – | – | – | – | 55
19 | N#CCCCN/C(N)=N\C(=O)Cn1c(-c2ccccc2)ccc1C12CC3CC(CC(C3)C1)C2 | – | – | – | 4.4 | 59 | 17
20 | N/C(=N/C(=O)Cn1c(-c2ccccc2)ccc1C12CC3CC(CC(C3)C1)C2)NCCc1cccs1 | – | 0.476 | – | 2 | 3 | –
21 | NC(N)=NC(=O)Cn1c(-c2ccccc2)ccc1C12CC3CC(CC(C3)C1)C2 | – | 25 | – | 8.9 | > 25 | 69
22 | CCCOc1ccc(-c2ccc(-c3ccccc3Cl)n2CC(=O)/N=C(/N)NCc2cccs2)cc1 | 0.752 | – | – | 10.7 | – | 0.7
23 | N/C(=N/C(=O)Cn1c(-c2ccccc2)ccc1C12CC3CC(CC(C3)C1)C2)NCc1cccc(N)c1 | – | – | – | 4.81 | 8 | 1.9
24 | CCCOc1ccc(-c2ccc(-c3ccccc3Cl)n2CC(=O)/N=C(/N)NCCC2OCCO2)cc1 | 0.269 | – | – | 1.34 | – | 13
25 | N/C(=N/C(=O)Cn1c(-c2ccccc2)ccc1C12CC3CC(CC(C3)C1)C2)NCCCn1ccnc1 | – | – | – | 9.16 | 45 | > 15
26 | N/C(=N/C(=O)Cn1c(-c2ccccc2)ccc1C12CC3CC(CC(C3)C1)C2)NCCc1ccsc1 | – | – | – | 1.69 | 2 | –
27 | C[C@@H](O)CN/C(N)=N\C(=O)Cn1c(-c2ccccc2)ccc1C12CC3CC(CC(C3)C1)C2 | 0.437 | 12.5 | – | 9.51 | 79 | 28
28 | CCCOc1ccc(-c2ccc(-c3ccccc3Cl)n2CC(=O)/N=C(/N)NCc2ccc(F)c(F)c2F)cc1 | – | – | – | 5.27 | – | 0.5
29 | N/C(=N/C(=O)Cn1c(-c2ccccc2)ccc1C12CC3CC(CC(C3)C1)C2)NC1CCCCC1 | – | – | – | 18.7 | 50 | 7.5
30 | N/C(=N/C(=O)Cn1c(-c2ccccc2)ccc1C12CC3CC(CC(C3)C1)C2)NCCCCO | – | – | – | 4.15 | 31 | 25
31 | Cc1nnc(CN/C(N)=N\C(=O)Cn2c(-c3ccccc3)ccc2C23CC4CC(CC(C4)C2)C3)o1 | – | 3.01 | – | 9.48 | 22 | –
32 | CCCOc1ccc(-c2ccc(-c3ccccc3Cl)n2CC(=O)/N=C(/N)NCCC(=O)O)cc1 | – | – | – | – | – | > 45
33 | N/C(=N\C(=O)Cn1c(-c2ccccc2)ccc1C12CC3CC(CC(C3)C1)C2)NCCCCO | 0.255 | 6.45 | – | – | – | –
34 | N/C(=N/C(=O)Cn1c(-c2ccccc2)ccc1C12CC3CC(CC(C3)C1)C2)N[C@H]1CC[C@H](O)CC1 | 0.283 | – | – | 1.44 | 14 | –

Second part, led by results:

Row | IC50 (Beta-secretase 1 [3]) [µM] | IC50 (Cathepsin D) [µM] | inhibition (Beta-secretase 1 [4]) [%] | Structure (SMILES) | ED50 (Beta-secretase 1 [1]) [µM] | CC50 (CHO) [µM] | Ratio IC50 [2]
35 | 0.651 | – | – | CCCOc1ccc(-c2ccc(-c3ccccc3Cl)n2CC(=O)/N=C(/N)NCc2ccc(O)c(OC)c2)cc1 | 5.45 | – | 1
36 | 0.124 | – | – | CCCOc1ccc(-c2ccc(-c3ccccc3Cl)n2CC(=O)/N=C(/N)NCC(O)CO)cc1 (centres undefined) | 5.27 | – | 81
37 | 0.13 | – | – | CCCOc1ccc(-c2ccc(-c3ccccc3Cl)n2CC(=O)/N=C(/N)NCCCC(=O)O)cc1 | – | – | 45
38 | 0.125 | – | – | CCCOc1ccc(-c2ccc(-c3ccccc3Cl)n2CC(=O)/N=C(/N)N[C@H]2CC[C@H](O)CC2)cc1 | 1.28 | – | 110
39 | – | 0.599 | – | N=C(NCCc1ccsc1)NC(=O)Cn1c(-c2ccccc2)ccc1C12CC3CC(CC(C3)C1)C2 | – | – | –
40 | – | – | 43 | N/C(=N\C(=O)Cn1c(-c2ccccc2)ccc1-c1ccccc1)NCc1ccc(F)c(F)c1F | – | – | –
41 | 0.255 | 4.25 | – | N#CCCCNC(=N)NC(=O)Cn1c(-c2ccccc2)ccc1C12CC3CC(CC(C3)C1)C2 | – | – | –
42 | 0.321 | – | – | CCCOc1ccc(-c2ccc(-c3ccccc3Cl)n2CC(=O)/N=C(/N)NCCCSC)cc1 | 1.23 | – | 3.9
43 | 0.137 | – | – | CCCOc1ccc(-c2ccc(-c3ccccc3Cl)n2CC(=O)/N=C(/N)NCCCC(N)=O)cc1 | 4.14 | – | 70
44 | 0.278 | – | – | CCCOc1ccc(-c2ccc(-c3ccccc3Cl)n2CC(=O)NC(=N)NCCC(=O)O)cc1 | – | – | –
45 | 0.744 | 1.38 | – | N=C(NCc1cccc(N)c1)NC(=O)Cn1c(-c2ccccc2)ccc1C12CC3CC(CC(C3)C1)C2 | – | – | –
46 | 0.203 | – | – | CCCOc1ccc(-c2ccc(-c3ccccc3Cl)n2CC(=O)/N=C(/N)NCC(C)(C)CO)cc1 | 5.27 | – | 15
47 | 0.172 | – | – | CCCOc1ccc(-c2ccc(-c3ccccc3Cl)n2CC(=O)NC(=N)NCCC(N)=O)cc1 | – | – | –
48 | 1.71 | > 25 | – | N=C(NCCCn1ccnc1)NC(=O)Cn1c(-c2ccccc2)ccc1C12CC3CC(CC(C3)C1)C2 | – | – | –
